From patent US6737383B1, “Herbicidal oxadiazolidines” (priority 1999, dated 2004)

Assays:
blackgrass = experiment: Test B pre/postemergence blackgrass; assay type: in vivo, Alopecurus myosuroides
In short: (§1)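 Test chemicals in a non-phytotoxic solvent mixture with surfactant were sprayed preemergence onto planted seeds and postemergence onto plants 2 to 18 cm tall (1- to 4-leaf stage). After twelve to sixteen days in a greenhouse, injury was visually rated against untreated controls from 0 (no effect) to 10 (complete control).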

bedstraw = experiment: Test B pre/postemergence bedstraw; assay type: in vivo, Galium aparine
In short: as §1

purple nutsedge = experiment: Test B pre/postemergence purple nutsedge; assay type: in vivo, Cyperus rotundus
In short: as §1

cocklebur = experiment: Test B pre/postemergence cocklebur; assay type: in vivo, Xanthium strumarium
In short: as §1

wheat = experiment: Test B pre/postemergence wheat; assay type: in vivo, Triticum aestivum
In short: as §1

bamyardgrass = experiment: Test B flood test barnyardgrass; assay type: in vivo, Echinochloa crus-galli; details: Pre-emergence
In short: (§2)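 Plants were grown to the 2-leaf stage before treatment with test chemical, then held in a greenhouse for twelve to sixteen days. Injury was visually rated against untreated controls on a 0–10 scale, where 0 is no effect and 10 is complete control.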

smallflower flatsedge = experiment: Test B flood test smallflower flatsedge; assay type: in vivo, Cyperus difformis; details: Pre-emergence
In short: as §2

velvetleaf = experiment: Test B pre/postemergence velvetleaf; assay type: in vivo, Abutilon theophrasti
In short: as §1

duck salad = experiment: Test B flood test duck salad; assay type: in vivo, Heteranthera limosa; details: Pre-emergence
In short: as §2

surinam grass = experiment: Test B pre/postemergence surinam grass; assay type: in vivo, Brachiaria decumbens
In short: as §1

rice = experiment: Test B flood test rice; assay type: in vivo, Oryza sativa; details: Pre-emergence
In short: as §2

corn = experiment: Test B pre/postemergence corn; assay type: in vivo, Zea mays
In short: as §1

wild oat = experiment: Test B pre/postemergence wild oat; assay type: in vivo, Avena fatua
In short: as §1

crabgrass = experiment: Test B pre/postemergence crabgrass; assay type: in vivo, Digitaria sanguinalis
In short: as §1

sugar beet = experiment: Test B pre/postemergence sugar beet; assay type: in vivo, Beta vulgaris
In short: as §1

soybean = experiment: Test B pre/postemergence soybean; assay type: in vivo, Glycine max
In short: as §1

[1] = Postemergence, Rate 1000 g/ha, scale 0 to 10 (0 no effect, 10 complete control)
[2] = Preemergence, Rate 250 g/ha, scale of 0 to 10 where 0 is no effect and 10 is complete control
[3] = Preemergence, Rate 500 g/ha, scale of 0 to 10 where 0 is no effect and 10 is complete control
[4] = Rate 125 g/ha, Postemergence, scale 0 to 10
[5] = Rate 125 g/ha, Preemergence, scale of 0 to 10 where 0 is no effect and 10 is complete control
[6] = Rate 500 g/ha, Postemergence, scale 0 to 10, 0 no effect, 10 complete control
[7] = Rate 1000 g/ha, Preemergence, scale 0 to 10 (0 no effect, 10 complete control)
[8] = Rate 1000 g/ha, scale 0 to 10 (0 no effect, 10 complete control)
[9] = Rate 125 g/ha, flood test species, scale 0 to 10 where 0 is no effect and 10 is complete control
[10] = Rate 250 g/ha, flood-test species, scale 0 to 10, 0 is no effect, 10 is complete control
[11] = Rate 500 g/ha, flood test species, scale 0 to 10 (0 no effect, 10 complete control)

With `CCOC(=O)C(C)N(C(=O)n1oc(=O)n(-c2ccccc2C)c1=O)c1ccc(F)cc1` (stereo not shown) [Compound 247] the “Blackgrass plant response rating” value (blackgrass; [1]) was 0, the “Blackgrass plant response rating” value (blackgrass; [2]) was 0 and the “Plant response rating, Blackgrass” value (blackgrass; [3]) was 0. For the same compound, the “Blackgrass plant response rating” value (blackgrass; [4]) was 0, the “Blackgrass plant response rating” value (blackgrass; [5]) was 0 and the “Plant response rating (0 to 10; 0 is no effect, 10 is complete control), Blackgrass” value (blackgrass; Rate 250 g/ha, Postemergence) was 0. For the same compound, the “Blackgrass plant response rating” value (blackgrass; [6]) was 0, the “Plant response rating, Blackgrass” value (blackgrass; [7]) was 0 and the “Bedstraw plant response rating” value (bedstraw; [1]) was 0. For the same compound, the “Bedstraw plant response rating” value (bedstraw; [2]) was 0, the “Plant response rating, Bedstraw” value (bedstraw; [3]) was 0 and the “Bedstraw plant response rating” value (bedstraw; [4]) was 0. For the same compound, the “Bedstraw plant response rating” value (bedstraw; [5]) was 0, the “Plant response rating (0 to 10; 0 is no effect, 10 is complete control), Bedstraw” value (bedstraw; Rate 250 g/ha, Postemergence) was 0 and the “Bedstraw plant response rating” value (bedstraw; [6]) was 0. The “Plant response rating, Bedstraw” value (bedstraw; [7]) was 0, the “Nutsedge plant response rating” value (purple nutsedge; [1]) was 0 and the “Nutsedge plant response rating” value (purple nutsedge; [2]) was 0. The “Plant response rating (0 to 10; 0 is no effect, 10 is complete control), Nutsedge” value (purple nutsedge; Rate 250 g/ha, Postemergence) was 0, the “Nutsedge plant response rating” value (purple nutsedge; [6]) was 0 and the “Cocklebur plant response rating” value (cocklebur; [1]) was 0. The “Cocklebur plant response rating” value (cocklebur; [2]) was 0, the “Plant response rating, Cocklebur” value (cocklebur; [3]) was 0 and the “Cocklebur plant response rating” value (cocklebur; [4]) was 0. The “Cocklebur plant response rating” value (cocklebur; [5]) was 0, the “Plant response rating (0 to 10; 0 is no effect, 10 is complete control), Cocklebur” value (cocklebur; Rate 250 g/ha, Postemergence) was 0 and the “Cocklebur plant response rating” value (cocklebur; [6]) was 0. The “Plant response rating, Cocklebur” value (cocklebur; [7]) was 0, the “Wheat plant response rating” value (wheat; [1]) was 0 and the “Wheat plant response rating” value (wheat; [2]) was 0. The “Plant response rating, Wheat” value (wheat; [3]) was 0, the “Wheat plant response rating” value (wheat; [5]) was 0 and the “Wheat plant response rating” value (wheat; [6]) was 0. The “Plant response rating, Wheat” value (wheat; [7]) was 0, the “Barnyardgrass plant response rating” value (bamyardgrass; [8]) was 0 and the “Barnyardgrass plant response rating” value (bamyardgrass; [9]) was 0. For the same compound, the “Barnyardgrass plant response rating” value (bamyardgrass; [10]) was 0, the “Barnyardgrass plant response rating” value (bamyardgrass; [11]) was 0 and the “S. Flatsedge plant response rating” value (smallflower flatsedge; [8]) was 0. For the same compound, the “S. Flatsedge plant response rating” value (smallflower flatsedge; [9]) was 0, the “S. Flatsedge plant response rating” value (smallflower flatsedge; [10]) was 0 and the “S. Flatsedge plant response rating” value (smallflower flatsedge; [11]) was 0. For the same compound, the “Velvetleaf plant response rating” value (velvetleaf; [1]) was 0, the “Velvetleaf plant response rating” value (velvetleaf; [2]) was 0 and the “Plant response rating, Velvetleaf” value (velvetleaf; [3]) was 0. The “Velvetleaf plant response rating” value (velvetleaf; [5]) was 0, the “Velvetleaf plant response rating” value (velvetleaf; [6]) was 0 and the “Plant response rating, Velvetleaf” value (velvetleaf; [7]) was 0. The “Ducksalad plant response rating” value (duck salad; [8]) was 0, the “Ducksalad plant response rating” value (duck salad; [9]) was 0 and the “Ducksalad plant response rating” value (duck salad; [10]) was 0. The “Ducksalad plant response rating” value (duck salad; [11]) was 0, the “B. signalgrass plant response rating” value (surinam grass; [1]) was 0 and the “B. signalgrass plant response rating” value (surinam grass; [2]) was 0. For the same compound, the “Plant response rating, B. signalgrass” value (surinam grass; [3]) was 0, the “B. signalgrass plant response rating” value (surinam grass; Rate 125 g/ha, Postemergence, scale 0 (no effect) to 10 (complete control)) was 0 and the “B. signalgrass plant response rating” value (surinam grass; [5]) was 0. The “Plant response rating (0 to 10; 0 is no effect, 10 is complete control), B. signalgrass” value (surinam grass; Rate 250 g/ha, Postemergence) was 0, the “B. signalgrass plant response rating” value (surinam grass; [6]) was 0 and the “Plant response rating, B. signalgrass” value (surinam grass; [7]) was 0. The “Rice plant response rating” value (rice; [8]) was 0, the “Rice plant response rating” value (rice; [9]) was 0 and the “Rice plant response rating” value (rice; [10]) was 0. For the same compound, the “Rice plant response rating” value (rice; [11]) was 0, the “Corn plant response rating” value (corn; [1]) was 0 and the “Corn plant response rating” value (corn; [2]) was 0. For the same compound, the “Plant response rating, Corn” value (corn; [3]) was 0, the “Corn plant response rating” value (corn; [4]) was 0 and the “Corn plant response rating” value (corn; [5]) was 0. The “Plant response rating (0 to 10; 0 is no effect, 10 is complete control), Corn” value (corn; Rate 250 g/ha, Postemergence) was 0, the “Corn plant response rating” value (corn; [6]) was 0 and the “Plant response rating, Corn” value (corn; [7]) was 0. For the same compound, the “Wild oats plant response rating” value (wild oat; [1]) was 0, the “Wild oats plant response rating” value (wild oat; [2]) was 0 and the “Plant response rating, Wild oats” value (wild oat; [3]) was 0. For the same compound, the “Wild oats plant response rating” value (wild oat; [5]) was 0, the “Wild oats plant response rating” value (wild oat; [6]) was 0 and the “Plant response rating, Wild oats” value (wild oat; [7]) was 0. For the same compound, the “Crabgrass plant response rating” value (crabgrass; [1]) was 0, the “Crabgrass plant response rating” value (crabgrass; [2]) was 2 and the “Plant response rating, Crabgrass” value (crabgrass; [3]) was 2. The “Crabgrass plant response rating” value (crabgrass; [5]) was 0, the “Plant response rating (0 to 10; 0 is no effect, 10 is complete control), Crabgrass” value (crabgrass; Rate 250 g/ha, Postemergence) was 0 and the “Crabgrass plant response rating” value (crabgrass; [6]) was 0. The “Plant response rating, Crabgrass” value (crabgrass; [7]) was 3, the “Sugarbeets plant response rating” value (sugar beet; [1]) was 0 and the “Sugarbeets plant response rating” value (sugar beet; [2]) was 0. The “Plant response rating, Sugarbeets” value (sugar beet; [3]) was 0, the “Sugarbeets plant response rating” value (sugar beet; [5]) was 0 and the “Sugarbeets plant response rating” value (sugar beet; [6]) was 0. The “Plant response rating, Sugarbeets” value (sugar beet; [7]) was 0, the “Soybean plant response rating” value (soybean; [1]) was 1 and the “Soybean plant response rating” value (soybean; [2]) was 0. For the same compound, the “Plant response rating, Soybean” value (soybean; [3]) was 0, the “Soybean plant response rating” value (soybean; [5]) was 0 and the “Soybean plant response rating” value (soybean; [6]) was 0. The “Plant response rating, Soybean” value (soybean; [7]) was 0.
